The text below walks through data of ChEMBL document CHEMBL1155316, “Benzo[d]imidazole inhibitors of Coactivator Associated Arginine Methyltransferase 1 (CARM1)--Hit to Lead studies” (Bioorg Med Chem Lett, 2009).

Broadly, the IC50 is the point on the concentration scale where inhibition reaches its midpoint.

Activity calls are given as the source filed them. The calls are words filed in the database; no cut-off is given here. A value given as a limit tells only on which side of the number the result lay.

For assay [1], the target named is Protein arginine N-methyltransferase 1 (Homo sapiens, UniProt Q99873). The assay is described as follows: Inhibition of PRMT1.
The target in assay [2] is Protein arginine N-methyltransferase 3 (Homo sapiens, UniProt O60678). The assay is described as follows: Inhibition of PRMT3.
Assay [3] has as its target T1, Histone-arginine methyltransferase CARM1 (Homo sapiens, UniProt Q86X55).
T1 sequence (Q86X55 whole entry): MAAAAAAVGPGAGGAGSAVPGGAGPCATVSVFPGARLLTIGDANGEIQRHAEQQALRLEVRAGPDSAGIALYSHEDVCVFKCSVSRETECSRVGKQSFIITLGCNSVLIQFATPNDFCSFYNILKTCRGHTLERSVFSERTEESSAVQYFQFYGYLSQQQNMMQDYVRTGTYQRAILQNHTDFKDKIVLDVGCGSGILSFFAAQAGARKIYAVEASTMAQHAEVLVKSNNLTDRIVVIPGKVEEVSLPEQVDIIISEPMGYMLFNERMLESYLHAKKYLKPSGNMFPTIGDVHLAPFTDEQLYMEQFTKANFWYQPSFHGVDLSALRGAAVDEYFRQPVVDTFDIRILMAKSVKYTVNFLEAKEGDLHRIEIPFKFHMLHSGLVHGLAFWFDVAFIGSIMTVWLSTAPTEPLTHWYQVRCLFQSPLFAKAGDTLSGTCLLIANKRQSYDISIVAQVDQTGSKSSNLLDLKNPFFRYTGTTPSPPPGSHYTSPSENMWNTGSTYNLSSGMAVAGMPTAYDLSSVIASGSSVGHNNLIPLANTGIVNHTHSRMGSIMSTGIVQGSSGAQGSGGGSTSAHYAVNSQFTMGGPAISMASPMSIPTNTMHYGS
The assay is described as follows: Inhibition of human CARM1 assessed as inhibition of histone3 methylation.

The target in assay [4] is T2, Histone-arginine methyltransferase CARM1 (Homo sapiens) (UniProt Q86X55).
T2 sequence (whole entry): T1 sequence (Q86X55 whole entry)
The assay is described as follows: Inhibition of human CARM1 assessed as inhibition of HuR methylation.

In assay [5] the target is T2, Histone-arginine methyltransferase CARM1 (Homo sapiens). The assay is described as follows: Inhibition of human CARM1 assessed as inhibition of PABP methylation.

Sequence of Protein arginine N-methyltransferase 3 (O60678 whole entry): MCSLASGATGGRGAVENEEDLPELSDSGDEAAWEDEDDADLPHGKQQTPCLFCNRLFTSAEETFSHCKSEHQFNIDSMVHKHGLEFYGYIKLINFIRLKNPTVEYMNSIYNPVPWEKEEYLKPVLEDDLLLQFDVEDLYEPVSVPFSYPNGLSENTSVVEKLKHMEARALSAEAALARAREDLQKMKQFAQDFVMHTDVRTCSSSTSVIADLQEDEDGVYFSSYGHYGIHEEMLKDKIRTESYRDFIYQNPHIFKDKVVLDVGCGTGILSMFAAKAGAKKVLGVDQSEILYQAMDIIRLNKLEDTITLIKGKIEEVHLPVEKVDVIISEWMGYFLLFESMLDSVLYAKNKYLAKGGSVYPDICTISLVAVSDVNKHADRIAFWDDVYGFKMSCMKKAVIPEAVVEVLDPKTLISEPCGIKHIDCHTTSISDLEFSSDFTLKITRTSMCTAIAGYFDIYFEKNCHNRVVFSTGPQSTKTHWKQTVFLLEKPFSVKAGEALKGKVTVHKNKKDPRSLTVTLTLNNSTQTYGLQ
Sequence of Protein arginine N-methyltransferase 1 (Q99873 whole entry): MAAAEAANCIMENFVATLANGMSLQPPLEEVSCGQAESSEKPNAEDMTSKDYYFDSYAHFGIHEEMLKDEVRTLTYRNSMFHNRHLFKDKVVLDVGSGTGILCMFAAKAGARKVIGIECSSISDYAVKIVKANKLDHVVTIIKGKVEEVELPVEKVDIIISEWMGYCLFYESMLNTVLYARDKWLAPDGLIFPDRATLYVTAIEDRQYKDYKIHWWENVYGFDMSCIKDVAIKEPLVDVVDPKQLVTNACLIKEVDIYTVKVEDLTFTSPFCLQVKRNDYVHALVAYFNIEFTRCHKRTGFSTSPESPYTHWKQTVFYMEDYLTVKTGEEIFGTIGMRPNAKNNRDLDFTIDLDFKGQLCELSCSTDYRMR

Take `CNCCN1CCC(c2cc(C)c3nc(-c4c(OC)cccc4OC)[nH]c3c2)CC1`: the IC50 in assay [1] and in assay [2] was greater than 25 µM each time. Turning to `CN[C@@H](C)CN1CCC(c2cc(C)c3nc(-c4cccnc4OC)[nH]c3c2)CC1`, the IC50 in assay [3] was greater than 30 µM. Take `CN[C@H](C)CN1CCC(c2cc(C)c3nc(-c4cccnc4OC)[nH]c3c2)CC1`: the IC50 in assay [3] was greater than 30 µM. Take `C[C@H](N)C(=O)NCc1cccc(-n2nc(C(F)(F)F)cc2-c2nnc(-c3cccc4ncsc34)o2)c1`: the 50% inhibitory concentration (IC50) in assay [3] was 0.04 µM. As for `CNCCN1CCC(c2cc(C)c3[nH]c(-c4c(OC)cccc4OC)nc3c2)CC1`, the result in assay [4] and in assay [5] was Active.
